Test results published in US20080145375A1, “Vaccination” (Glaxo Group Limited, priority 2003, published 2008).

Experiments:
[1] = test system: C57/bl6 mice immunised with OVAcyt; assay: In vivo cytotoxicity assay (SIINFEKL pulsed CSFE labelled splenocytes); set-up: species or system mouse; conditions: 3 mice per group; Day 7, 14, 21 and 42 post immunisation; FIG. 18
Description: The effect of GMCSF and Imiquimod on cytotoxic responses to p7313OVA after primary immunisation was also measured by in vivo cytotoxicity assays (FIG. 18). C57/bl6 mice were immunised with either OVAcyt or OVAcyt+GMCSF by PMID. At 24 hours post immunisation imiquimod was applied on the immunisation site. At Day 7, 14, 21 and 42 post immunisation mice were injected i.v. with CSFE labelled splenocytes consisting of [sequence] peptide pulsed and unpulsed in equal numbers. After 2 hours the blood was analysed by flow cytometry and the ratio of pulsed to unpulsed cells remaining was calculated to give a numerical value of cytotoxicity.

[2] = test system: C56BI/6 mice immunised with p7313OVAcyt; assay: ELISPOT after primary PMID immunisation with p7313OVAcyt; assay type: in vivo, mouse; conditions: delivered singly with p7313 OVAcyt; Day 7 post primary immunisation; FIG. 8
Description: (§1) Plasmid DNA was precipitated onto 2 μm diameter gold beads using calcium chloride and spermidine. Equal amounts of plasmids encoding antigen (p7313OVAcyt, p7313RNG, pVAC7VNTRMuc1, pVAC7VNTRMuc1-PADRE or pVAC7VNTRMuc1-HepB) and p7313GMCSF plasmids were mixed and co-precipitated so that all beads were coated with a mixture of the 2 plasmids ensuring delivery of both plasmids to the same cell. Unless otherwise stated both the antigen and GMCSF were loaded at 0.5 ug/cartridge. Where lower doses of antigen were used the GMCSF loading remained at 0.5 ug and the total DNA on the cartridge was adjusted to 1 ug using p7313empty or pVACempty plasmids. Loaded beads were coated onto Tefzel tubing as described in, for example, Eisenbraum, et al. 1993. DNA Cell Biol. 12:791-797; Pertmer et al, 1996 J. Virol. 70:6119-6125). Particle bombardment was performed using the Accell gene delivery (PCT WO 95/19799; incorporated herein by reference). Female C56BI/6 mice were immunised with 2 administrations of plasmid at each time point as detailed in the results section, one on each side of the abdomen after shaving. […]
(§2) Cells were removed from the plates by washing once with water (with 1 minute soak to ensure lysis of cells) and three times with PBS. […] Spots were enumerated using an image analysis system devised by Brian Hayes, Asthma Cell Biology unit, GSK or the AID Elispot reader (Cadama Biomedical, UK). […]

[3] = test system: mice immunised with pVAC7VNTR muc1; assay: Elispot of Muc1 CD4 responses after immunisation with pVAC7VNTR muc1; assay type: in vivo, mouse; conditions: immunised days 0 and 21; day 7 post boost; compared to pVAC 7VNTRMuc1 alone; FIG. 12
Description: For OVA assays peptide SIINFEKL, a dominant CD8 peptide of OVA, was used in assays at a final concentration of 50 nM to measure CD8 responses and peptide […] was used at a final concentration of 10 μM to measure CD4 responses. For ICS assays Ovalbumin protein was also used to measure CD4 responses at 1 mg/ml. For ELISPOT to detect responses to p7313RNG peptide the CD8 peptide AMQMLKETI was used for stimulation. For detecting responses to Muc1, CD4 peptides […] and […] were used at 10 uM, and CD8 peptide SAPDNRPAL was used at 10 nM. The 9-mer peptides used to follow CD8 responses to Gag and RT in mice were […] (Gag CD8) and YYPDSKDLI (RT CD8) respectively, and CD4 responses to Gag and RT were followed using […] (Gag CD4) and […] (RT CD4) respectively. Peptide […] (Nef 218) was also tested. These peptides were tested at a final concentration of 10 μM. The peptides were obtained from Genemed Synthesis, South San Francisco.
Experiments were carried out to determine the effect of GMCSF and Imiquimod treatment on responses to pVAC7VNTR Muc1. Mice were immunised at days 0 and 21 with pVAC7VNTR muc1. This was delivered alone, co-delivered with p7313GMCSF, or with p7313GMCSF and Imiquimod application at 24 hours post immunisation. Spleens were harvested at day 7 post boost and analysed by Elispot following overnight stimulation with Muc1 CD4 peptides.

[4] = test system: mice immunised with p731-RNG (GW825780X); assay: IFNγ Elispot after PMID immunisation with p731-RNG, imiquimod at 0 h or 24 h; assay type: in vivo, mouse; conditions: application 24 h post immunisation; 2×0.5 ug p731-RNG by PMID; spleens day 14; GAG CD8 peptide AMQMLKETI; FIG. 5
Description: as §1, with “reference).” for “reference). Female C56BI/6 mice were immunised with 2 administrations of plasmid at each time point as detailed in the results section, one on each side of the abdomen after shaving.”
as §2
Spleens were harvested at day 14 post immunisation and the cellular responses analysed by IFNγ Elispot following stimulation with a GAG balb/c CD8 9mer peptide: AMQMLKETI.

RIP OVAlo mice = assay: Breaking tolerance in RIP OVAlo mice; assay type: in vivo, mouse; conditions: four immunisations at 3 weeks intervals; SIINFEKL restimulation
Source text: RIP OVAlo mice were used to test the potential for tolerance breaking of the GMCSF+Imiquimod combination (FIG. 20). RIP OVAlo mice express ovalbumin (OVA) on the insulin producing beta cells of the pancreas and are therefore tolerant to this molecule. Disruption of this tolerance results in autoimmune destruction of the beta cells leading to diabetes which can be easily monitored by measurement of glycosuria and blood glucose level. RIPova lo and C57/BL6 mice (wt control group) received four immunisations with empty vector or OVAcyt (using PMID), ±GM-CSF (using PMID), and ±Imiquimod. Immunisations were given at 3 weeks intervals. Imiquimod was applied topically on the site of immunisation 24 h after PMID. 7 Days after the last immunisation splenocytes and serum samples were taken. […] The functional test for tolerance breaking in this model is development of diabetes. This is measured by urine glucose levels.

[5] = test system: TLRs 1-9 mRNA in monocyte derived DC; assay: Taqman analysis of TLR expression on IFNγ treated DC; assay type: cell-based, human; conditions: DC treated with IFNγ for 24 hours; 3 healthy donors; FIG. 6
Description: Monocytes were isolated from the PBMC of 3 healthy donors and cultured with IL-4 & GM-CSF for 7 days to induce differentiation to immature DC. The DC were then treated with IFNγ for 24 hours. mRNA expression of TLRs 1-9 was then measured by Taqman. In contrast to published reports we have shown that low levels of TLR7 are constitutively expressed on monocyte derived DC. […] The increase in TLR7 expression at 24 hours post stimulation in vitro provides an explanation for the results in FIG. 5 showing the good effect of Imiquimod at 24 hours post immunisation.

Compound | in vivo cytotoxicity [1] | adjuvant effect in Elispot assays [2] | Muc1 CD4 responses (Elispot) [3] | adjuvant effect on cellular responses, IFNγ Elispot [4] | CD8 responses (IFNγ and IL2 production in CD8+ T cells) (RIP OVAlo mice) | mRNA expression of TLR2 [5] | mRNA expression of TLR7 and TLR8 [5]
CC(C)Cn1cnc2c(N)nc3ccccc3c21 [Imiquimod, imiquimod] | clear benefit over OVA alone | adjuvant effects | improved CD4 responses | good adjuvant effect | there are responses | – | –
GMCSF | – | adjuvant effects | improved CD4 responses | – | there are responses | – | –
IFNγ: interferon-gamma used to treat monocyte derived DC for 24 hours | – | – | – | – | – | upregulated but to a lesser extent | expression of TLR8 and increased levels of expression of TLR7 were found in all 3 donors
